As a reminder, the IC50 is the point on the concentration scale where inhibition reaches its midpoint. What is called EC50 is the concentration needed to bring the measured effect to its halfway point.

One experiment deals with recombinant human HPK1 (Homo sapiens (Human), UniProt Q92918). The experiment in a line: HPK1 kinase assay (ADP-Glo). The experiment is classed as biochemical. As to conditions: 25 μM ATP, MBP substrate. Summed up: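 Activity was read as ADP formed, detected by ADP-Glo luminescence after the reaction of 5 ng recombinant human HPK1 with MBP and ATP (stocks 0.5 μg/μl and 25 μM) for 40 min at 30 °C. Buffer was Tris pH 7.5 with MgCl2, BSA and DTT, with compound in 0.5% DMSO. IC50 came from inhibition curves.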
recombinant human HPK1, sequence (Q92918 whole entry): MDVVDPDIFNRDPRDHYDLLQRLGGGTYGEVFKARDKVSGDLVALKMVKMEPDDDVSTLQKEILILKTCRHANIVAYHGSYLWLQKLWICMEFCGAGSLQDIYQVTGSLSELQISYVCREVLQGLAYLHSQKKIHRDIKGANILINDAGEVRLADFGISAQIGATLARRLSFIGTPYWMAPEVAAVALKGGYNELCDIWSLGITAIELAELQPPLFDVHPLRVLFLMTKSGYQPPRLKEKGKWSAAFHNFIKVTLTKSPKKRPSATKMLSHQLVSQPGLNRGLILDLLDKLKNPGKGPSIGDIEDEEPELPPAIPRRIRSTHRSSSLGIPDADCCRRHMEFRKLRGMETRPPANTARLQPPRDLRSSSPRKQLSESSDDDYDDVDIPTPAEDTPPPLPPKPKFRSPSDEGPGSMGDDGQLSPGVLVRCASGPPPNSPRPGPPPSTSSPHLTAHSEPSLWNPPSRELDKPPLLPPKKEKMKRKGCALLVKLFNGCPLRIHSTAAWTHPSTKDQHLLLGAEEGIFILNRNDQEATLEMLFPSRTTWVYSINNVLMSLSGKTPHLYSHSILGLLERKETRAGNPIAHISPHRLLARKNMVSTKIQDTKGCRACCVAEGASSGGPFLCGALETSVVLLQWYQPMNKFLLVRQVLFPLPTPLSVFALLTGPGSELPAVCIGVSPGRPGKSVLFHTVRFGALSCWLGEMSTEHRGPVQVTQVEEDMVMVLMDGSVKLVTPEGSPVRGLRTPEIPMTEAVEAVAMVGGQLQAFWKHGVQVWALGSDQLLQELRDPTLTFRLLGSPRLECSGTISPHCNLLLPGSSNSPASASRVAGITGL
For orientation: ADP-Glo turns the ADP formed in a reaction into a luminescent signal.

For experiment [1], the system named is human peripheral blood pan T cells. In words: IFNγ and IL-2 analysis of human peripheral pan T cells. The experiment is classed as cell-based. The conditions noted are these: T-cell, CD3/CD28 bead stimulation, 100 nM Prostaglandin E2, 24 hr. How it is done:
IFNγ and IL-2 Analysis of Human Peripheral Pan T Cells
Human peripheral blood pan T cells were purchased from STEMCELL™ Technologies Inc. Human peripheral blood pan T cells were thawed and suspended in DMEM media (10% FBS and 10 Penicillin/Streptomycin). 8×10^4 T cells were seeded in 96-well plate and incubated with various concentration of compounds and 100 nM Prostaglandin E2 for 1 hr. T cells were stimulated with Dynabeads Human T-Activator CD3/CD28 (Life Technologies) at a 1:3 cells: beads ratio. […] Data were analyzed with an MESO Quickplex SQ120 (Mesoscale Discovery).
In Table 3, the values represent + for >1000 nM, ++ 200-1,000 nM, +++ for <200 nM and − for not determined.

Where [2] appears, read: IFNγ secretion, read-out: IFNγ (EC50).
Setting [3] is: IL-2 secretion, read-out: IL-2 (EC50).

Read-outs that look alike come from different tables or passages of the source.

With `Cc1c(F)c(N(C)C)c2[nH]ncc2c1-c1ccc2nc(NC(=O)[C@@H]3C[C@@H]3F)sc2c1` [Example 104, (1S,2S)-N-(6-(7-(dimethylamino)-6-fluoro-5-methyl-1H-indazol-4-yl)benzo[d]thiazol-2-yl)-2-fluorocyclopropane-1-carboxamide], the IC50 on recombinant human HPK1 was below 100 nM. The EC50 in experiment [1] (setting [2]) was 200 to 1000 nM; in experiment [1] (setting [3]), above 1000 nM.

As to `CSc1c(F)cc2[nH]ncc2c1-c1ccc2nc(NC(=O)[C@@H]3C[C@@H]3F)sc2c1` [Example 105, (1S,2S)-2-fluoro-N-(6-(6-fluoro-5-(methylthio)-1H-indazol-4-yl)benzo[d]thiazol-2-yl)cyclopropane-1-carboxamide], on recombinant human HPK1, the IC50 was below 100 nM. Besides, the values for the EC50 in experiment [1] (setting [2]) and in experiment [1] (setting [3]) were 200 to 1000 nM and above 1000 nM, respectively.

For `CCOc1c(F)c(CC)c(-c2ccc3nc(NC(=O)[C@@H]4C[C@@H]4F)sc3c2)c2cn[nH]c12` [Example 107, (1S,2S)-N-(6-(7-ethoxy-5-ethyl-6-fluoro-1H-indazol-4-yl)benzo[d]thiazol-2-yl)-2-fluorocyclopropane-1-carboxamide], the IC50 on recombinant human HPK1 was below 100 nM. In addition, the EC50 in experiment [1] (setting [2]) was in the range of 200 to 1000 nM.

Consider `CSc1c(F)c(N(C)C)c2[nH]ncc2c1-c1ccc2nc(NC(=O)[C@@H]3C[C@@H]3F)sc2c1` [Example 110, (1S,2S)-N-(6-(7-(dimethylamino)-6-fluoro-5-(methylthio)-1H-indazol-4-yl)benzo[d]thiazol-2-yl)-2-fluorocyclopropane-1-carboxamide], for which, at recombinant human HPK1, the IC50 is below 100 nM. Moreover, the EC50 in experiment [1] (setting [2]) was below 200 nM.

Consider `CSc1c(F)c(SC)c2[nH]ncc2c1-c1ccc2nc(NC(=O)[C@@H]3C[C@@H]3F)sc2c1` [Example 111, (1S,2S)-2-fluoro-N-(6-(6-fluoro-5,7-bis(methylthio)-1H-indazol-4-yl)benzo[d]thiazol-2-yl)cyclopropane-1-carboxamide], for which the EC50 in experiment [1] (setting [2]) was in the range of 200 to 1000 nM.

`CCOc1c(F)c(SC)c(-c2ccc3nc(NC(=O)[C@@H]4C[C@@H]4F)sc3c2)c2cn[nH]c12` [Example 118, (1S,2S)-N-(6-(7-ethoxy-6-fluoro-5-(methylthio)-1H-indazol-4-yl)benzo[d]thiazol-2-yl)-2-fluorocyclopropane-1-carboxamide]: the IC50 on recombinant human HPK1 was below 100 nM. Also, the EC50 in experiment [1] (setting [2]) is below 200 nM.

As to `CSc1c(F)c(C)c(-c2ccc3nc(NC(=O)[C@@H]4C[C@@H]4F)sc3n2)c2cn[nH]c12` [Example 173, (1S,2S)-2-fluoro-N-(5-(6-fluoro-5-methyl-7-(methylthio)-1H-indazol-4-yl)thiazolo[5,4-b]pyridin-2-yl)cyclopropane-1-carboxamide], the EC50 in experiment [1] (setting [2]) lay in the range of 200 to 1000 nM.

`CCN(C)c1c(F)c(Cl)c(-c2ccc3nc(NC(=O)[C@@H]4C[C@@H]4F)sc3n2)c2cn[nH]c12` [Example 196, (1S,2S)-N-(5-(5-chloro-7-(ethyl(methyl)amino)-6-fluoro-1H-indazol-4-yl)thiazolo[5,4-b]pyridin-2-yl)-2-fluorocyclopropane-1-carboxamide]: the EC50 in experiment [1] (setting [2]) was 200 to 1000 nM.

`CCN(C)c1c(F)c(C)c(-c2ccc3nc(NC(=O)[C@@H]4C[C@@H]4F)cn3c2)c2cn[nH]c12` [Example 330, (1S,2S)-N-(6-(7-(ethyl(methyl)amino)-6-fluoro-5-methyl-1H-indazol-4-yl)imidazo[1,2-a]pyridin-2-yl)-2-fluorocyclopropane-1-carboxamide]: the EC50 in experiment [1] (setting [2]) and in experiment [1] (setting [3]) was 200 to 1000 nM in each case.

Consider `CC(=O)N(C)c1c(F)c(C)c(-c2ccn3nc(NC(=O)[C@@H]4C[C@@H]4F)cc3c2)c2cn[nH]c12` [Example 550, (1S,2S)-2-fluoro-N-(5-(6-fluoro-5-methyl-7-(N-methylacetamido)-1H-indazol-4-yl)pyrazolo[1,5-a]pyridin-2-yl)cyclopropane-1-carboxamide], for which the EC50 in experiment [1] (setting [2]) and in experiment [1] (setting [3]) was 200 to 1000 nM in each case.

As for `CSc1c(F)c(C)c(-c2ccn3nc(NC(=O)C4CC4)cc3c2)c2cn[nH]c12` [Example 562, N-(5-(6-fluoro-5-methyl-7-(methylthio)-1H-indazol-4-yl)pyrazolo[1,5-a]pyridin-2-yl)cyclopropanecarboxamide], in experiment [1] (setting [2]), the EC50 is 200 to 1000 nM.

Take `CSc1c(F)c(C)c(-c2ccn3nc(NC(=O)[C@H]4C[C@H]4F)cc3c2)c2cn[nH]c12` [Example 574, (1R,2R)-2-fluoro-N-(5-(6-fluoro-5-methyl-7-(methylthio)-1H-indazol-4-yl)pyrazolo[1,5-a]pyridin-2-yl)cyclopropane-1-carboxamide]: the EC50 in experiment [1] (setting [2]) and in experiment [1] (setting [3]) was 200 to 1000 nM in each case.

Consider `COC[C@H](C)c1c(F)c(Cl)c(-c2ccn3nc(NC(=O)[C@@H]4C[C@@H]4F)cc3c2)c2cn[nH]c12` [Example 655, (1S,2S)-N-(5-(5-chloro-6-fluoro-7-((R)-1-methoxypropan-2-yl)-1H-indazol-4-yl)pyrazolo[1,5-a]pyridin-2-yl)-2-fluorocyclopropane-1-carboxamide], for which the half-maximal inhibitory concentration (IC50) on recombinant human HPK1 was below 100 nM.

As to `COC[C@@H](C)c1c(F)c(Cl)c(-c2ccn3nc(NC(=O)[C@@H]4C[C@@H]4F)cc3c2)c2cn[nH]c12` [Example 656, (1S,2S)-N-(5-(5-chloro-6-fluoro-7-((S)-1-methoxypropan-2-yl)-1H-indazol-4-yl)pyrazolo[1,5-a]pyridin-2-yl)-2-fluorocyclopropane-1-carboxamide], the concentration for half-maximal inhibition (IC50) on recombinant human HPK1 was below 100 nM.

Regarding `CC(Nc1c(F)c(Cl)c(-c2ccn3nc(NC(=O)[C@@H]4C[C@@H]4F)cc3c2)c2cn[nH]c12)C(F)F` (stereo partly drawn) [Example 657, (1S,2S)-N-(5-(5-chloro-7-((1,1-difluoropropan-2-yl)amino)-6-fluoro-1H-indazol-4-yl)pyrazolo[1,5-a]pyridin-2-yl)-2-fluorocyclopropane-1-carboxamide], the concentration for half-maximal inhibition (IC50) at recombinant human HPK1 was below 100 nM.

Turning to `O=C(Nc1cc2cc(-c3c(Cl)c(F)c(C4CC(O)CO4)c4[nH]ncc34)ccn2n1)[C@@H]1C[C@@H]1F` (stereo partly drawn) [Example 658, (1S,2S)-N-(5-(5-chloro-6-fluoro-7-(4-hydroxytetrahydrofuran-2-yl)-1H-indazol-4-yl)pyrazolo[1,5-a]pyridin-2-yl)-2-fluorocyclopropane-1-carboxamide], the IC50 on recombinant human HPK1 is below 100 nM.

As for `CC(NC=O)c1c(F)c(Cl)c(-c2ccn3nc(NC(=O)[C@@H]4C[C@@H]4F)cc3c2)c2cn[nH]c12` (stereo partly drawn) [Example 659, (1S,2S)-N-(5-(5-chloro-6-fluoro-7-(1-formamidoethyl)-1H-indazol-4-yl)pyrazolo[1,5-a]pyridin-2-yl)-2-fluorocyclopropane-1-carboxamide], the IC50 at recombinant human HPK1 is below 100 nM.

On to `CCC(=O)NC(C)c1c(F)c(Cl)c(-c2ccn3nc(NC(=O)[C@@H]4C[C@@H]4F)cc3c2)c2cn[nH]c12` (stereo partly drawn) [Example 660, (1S,2S)-N-(5-(5-chloro-6-fluoro-7-(1-propionamidoethyl)-1H-indazol-4-yl)pyrazolo[1,5-a]pyridin-2-yl)-2-fluorocyclopropane-1-carboxamide], for which, at recombinant human HPK1, the IC50 was below 100 nM.

Take `CC(NC(=O)C1CCC1)c1c(F)c(Cl)c(-c2ccn3nc(NC(=O)[C@@H]4C[C@@H]4F)cc3c2)c2cn[nH]c12` (stereo partly drawn) [Example 661, N-(1-(5-chloro-6-fluoro-4-(2-((1S,2S)-2-fluorocyclopropane-1-carboxamido)pyrazolo[1,5-a]pyridin-5-yl)-1H-indazol-7-yl)ethyl)cyclobutanecarboxamide]: on recombinant human HPK1, the IC50 was below 100 nM.

As to `CC(NC(=O)C(F)(F)F)c1c(F)c(Cl)c(-c2ccn3nc(NC(=O)[C@@H]4C[C@@H]4F)cc3c2)c2cn[nH]c12` (stereo partly drawn) [Example 662, (1S,2S)-N-(5-(5-chloro-6-fluoro-7-(1-(2,2,2-trifluoroacetamido)ethyl)-1H-indazol-4-yl)pyrazolo[1,5-a]pyridin-2-yl)-2-fluorocyclopropane-1-carboxamide], on recombinant human HPK1, the IC50 was below 100 nM.

For the molecule `CC(=O)NC(C)c1c(F)c(Cl)c(-c2ccn3nc(NC(=O)[C@@H]4C[C@@H]4F)cc3c2)c2cn[nH]c12` (stereo partly drawn) [Example 663, (1S,2S)-N-(5-(7-(1-acetamidoethyl)-5-chloro-6-fluoro-1H-indazol-4-yl)pyrazolo[1,5-a]pyridin-2-yl)-2-fluorocyclopropane-1-carboxamide], the IC50 on recombinant human HPK1 was below 100 nM.

Turning to `CNC(=O)N(C)c1c(F)c(Cl)c(-c2ccn3nc(NC(=O)[C@@H]4C[C@@H]4F)cc3c2)c2cn[nH]c12` [Example 664, (1S,2S)-N-(5-(5-chloro-7-(1,3-dimethylureido)-6-fluoro-1H-indazol-4-yl)pyrazolo[1,5-a]pyridin-2-yl)-2-fluorocyclopropane-1-carboxamide], on recombinant human HPK1, the IC50 was below 100 nM.

With `CC(NC(=O)C(F)F)c1c(F)c(Cl)c(-c2ccn3nc(NC(=O)[C@@H]4C[C@@H]4F)cc3c2)c2cn[nH]c12` (stereo partly drawn) [Example 665, (1S,2S)-N-(5-(5-chloro-7-(1-(2,2-difluoroacetamido)ethyl)-6-fluoro-1H-indazol-4-yl)pyrazolo[1,5-a]pyridin-2-yl)-2-fluorocyclopropane-1-carboxamide], at recombinant human HPK1, the IC50 was below 100 nM.

As for `CO[C@H](C)[C@@H](OC)c1c(F)c(Cl)c(-c2ccn3nc(NC(=O)[C@@H]4C[C@@H]4F)cc3c2)c2cn[nH]c12` [Example 666, (1S,2S)-N-(5-(5-chloro-7-((1S,2R)-1,2-dimethoxypropyl)-6-fluoro-1H-indazol-4-yl)pyrazolo[1,5-a]pyridin-2-yl)-2-fluorocyclopropane-1-carboxamide], the IC50 on recombinant human HPK1 fell in the range of 101 to 500 nM.

The record behind these values is patent US11649255B2, “Indazoles as hematopoietic progenitor kinase 1 (HPK1) inhibitors and methods using same” (1st Biotherapeutics, Inc., priority 2020, dated 2023).
